From ChEMBL document CHEMBL1149376, “Sulfamoyl-4-oxoquinoline-3-carboxamides: novel potentiators of defective DeltaF508-cystic fibrosis transmembrane conductance regulator chloride channel gating” (Bioorg Med Chem Lett, 2006)

Target: Cystic fibrosis transmembrane conductance regulator (Homo sapiens) (UniProt P13569)
Assay: Potentiation of deltaF508 mutated CFTR dependent iodide influx at 0.1 uM
Format: functional

Cystic fibrosis transmembrane conductance regulator (Homo sapiens), sequence (P13569 whole entry, looked up): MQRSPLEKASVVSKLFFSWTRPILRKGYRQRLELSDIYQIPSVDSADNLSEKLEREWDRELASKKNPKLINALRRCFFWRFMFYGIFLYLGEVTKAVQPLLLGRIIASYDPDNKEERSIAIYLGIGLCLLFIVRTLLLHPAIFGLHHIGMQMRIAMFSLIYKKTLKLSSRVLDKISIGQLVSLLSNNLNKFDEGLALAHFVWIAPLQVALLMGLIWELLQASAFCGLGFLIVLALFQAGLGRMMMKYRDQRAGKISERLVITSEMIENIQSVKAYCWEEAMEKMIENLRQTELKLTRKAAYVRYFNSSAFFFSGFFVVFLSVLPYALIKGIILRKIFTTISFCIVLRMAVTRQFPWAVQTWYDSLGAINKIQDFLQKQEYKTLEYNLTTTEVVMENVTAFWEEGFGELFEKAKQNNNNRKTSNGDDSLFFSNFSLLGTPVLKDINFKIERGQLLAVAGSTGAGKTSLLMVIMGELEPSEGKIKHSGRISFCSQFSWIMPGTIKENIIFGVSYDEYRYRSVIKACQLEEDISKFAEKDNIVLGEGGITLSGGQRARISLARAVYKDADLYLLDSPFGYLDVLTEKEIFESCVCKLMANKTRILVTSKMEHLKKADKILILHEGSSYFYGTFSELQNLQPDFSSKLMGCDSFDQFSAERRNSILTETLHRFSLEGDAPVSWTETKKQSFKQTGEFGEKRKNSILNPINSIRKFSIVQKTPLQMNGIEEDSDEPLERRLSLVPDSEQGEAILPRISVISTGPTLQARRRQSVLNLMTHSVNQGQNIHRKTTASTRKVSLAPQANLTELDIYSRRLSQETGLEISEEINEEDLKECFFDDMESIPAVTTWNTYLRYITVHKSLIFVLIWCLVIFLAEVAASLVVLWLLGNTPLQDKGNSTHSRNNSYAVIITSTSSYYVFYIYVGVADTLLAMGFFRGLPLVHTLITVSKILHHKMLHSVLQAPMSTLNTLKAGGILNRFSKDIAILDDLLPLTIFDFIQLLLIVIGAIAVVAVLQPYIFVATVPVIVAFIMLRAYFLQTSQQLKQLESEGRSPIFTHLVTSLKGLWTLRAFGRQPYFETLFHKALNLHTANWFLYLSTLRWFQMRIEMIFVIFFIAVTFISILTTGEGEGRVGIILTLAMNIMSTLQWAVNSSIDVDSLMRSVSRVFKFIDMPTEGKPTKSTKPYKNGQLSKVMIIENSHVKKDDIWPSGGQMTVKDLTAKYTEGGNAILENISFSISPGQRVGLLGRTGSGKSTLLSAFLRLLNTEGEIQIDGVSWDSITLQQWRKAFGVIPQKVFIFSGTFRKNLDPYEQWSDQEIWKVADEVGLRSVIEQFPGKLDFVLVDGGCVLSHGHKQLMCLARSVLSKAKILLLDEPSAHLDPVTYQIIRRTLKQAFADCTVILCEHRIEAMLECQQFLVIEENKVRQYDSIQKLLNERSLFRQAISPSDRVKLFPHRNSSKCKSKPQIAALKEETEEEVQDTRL

CCN(c1ccccc1)S(=O)(=O)c1ccc2ncc(C(=O)NCc3ccccc3OC)c(O)c2c1
Activity: 50%
